# Results from US20090215783A1, “COMPOSITION FOR INDUCTION OR INHIBITION OF STEM CELL DIFFERENTIATION” (CHOONGWAE PHARMA CORPORATION, priority 2006, published 2009).
# How the values were obtained:
# [1] = tested on: β-catenin/TCF transcription; test: TopFlash reporter gene assay in SW480 cells; assay type: cell-based; conditions: Homo sapiens; SW480 cells transfected with β-catenin/TCF luciferase construct; 24 hours treatment; dual luciferase assay; read-out: IC50, inhibition of β-catenin/TCF reporter gene construct
# Experimental: FIG. 2. Compound A (Serial No. 111 in Table 2) inhibits β-catenin/TCF transcription. […] SW480 cells (10^5) were transfected with β-catenin/TCF luciferase construct. Cells were treated with Compound A (1-50 μM). 24 hours after the treatment lysates were prepared and subjected to dual luciferase assay.
# FIG. 3. Compound B (Serial No. 10 in Table 2) inhibits β-catenin/TCF transcription. […] SW480 cells ([…]) were transfected with β-catenin/TCF luciferase construct. Cells were treated with Compound B (1-50 μM). 24 hours after treatment lysates were prepared and subjected to dual luciferase assay.
# SW480 cells were transfected using Superfect™ transfection reagent (Qiagen, 301307). Cells were trypsinized briefly 1 day before transfection and plated on 6 well plate (5×10^5 cells/well) so that they were 50-80% confluent on the day of transfection.
# Four microgram (TOPFlash) and one microgram (pRL-null) of DNAs were diluted in […] of serum-free medium, and 30 μl of Superfect™ transfection reagent was added. The DNA-Superfect mixture was incubated at room temperature for 15 min, and then, 1 ml of 10% FBS DMEM was added to this complex for an additional 3 hours of incubation. While complexes were forming, cells were washed with PBS twice without antibiotics.
# The DNA-Superfect™ transfection reagent complexes were applied to the cells before incubating at 37° C. at 5% CO2 for 3 hours. […]
# [2] = tested on: Mouse embryonic stem (ES) cells, TC1; test: Cardiomyogenesis modulating activity assay (alpha-MHC promoter EGFP, embryoid bodies, FACS/fluorescence microscopy); assay type: cell-based; conditions: for Cardiomyogenesis: fold change of EGFP expression level compared with DMSO control: embryoid bodies treated for 5 days
# Outline: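 Mouse TC1 ES cells carrying an alpha-MHC promoter-EGFP reporter were formed into embryoid bodies (~600 cells, 2 days hanging drop, 2 days suspension), plated, then exposed to compounds (final 0.05% DMSO) for 5 days. Cardiomyogenesis assessed by EGFP via FACS after trypsin dissociation, fluorescence microscopy, and daily counts of beating EBs.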
# [3] = tested on: ANP and Nkx2.5 mRNA in the ES cells; test: Real time RT-PCR of cardiomyogenesis marker genes ANP and Nkx2.5; assay type: cell-based, mouse; conditions: ES cells treated for 7 and 10 days
# Experimental: d. Real time RT-PCR: To analyze the mRNA levels of cardiomyogenesis marker genes, Atrial Natriuretic Peptide (ANP) and Nk×2.5, total RNA was isolated using Trizol (Invitrogen-GIBCO-BRL, Baltimore, Md., USA) from stem cells with or without Compound E treatment for 7 days and 10 days. Relative expression level of each mRNA was measured.
# [4] = tested on: human bone marrow derived-mesenchymal stem cells (hBMMSC); test: Osteogenesis modulating activity assay by test compound alone (ALP activity); assay type: cell-based; conditions: for fold induction at 20 µM: Homo sapiens, 168 h, 20 μM test compound alone, six to seven days, read-out: Osteogenesis: fold change of ALP activity compared with DMSO control
# Outline: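 hBMMSC from normal subjects were treated with compound at 20 μM final (0.01% DMSO) at 37° C, 5% CO2, with medium and compound renewed every two days. Alkaline phosphatase activity in cell lysates was measured colorimetrically after six to seven days.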
# [5] = tested on: human bone marrow derived-mesenchymal stem cells (hBMMSC); test: Osteogenesis modulating activity with osteogenic induction cocktails (ALP activity, mineralization); assay type: cell-based; conditions: for mineralization of hBMMSC: co-treated with osteogenic induction cocktails (OIC); for stimulation of mineralization at various concentrations: even at the 0.5 μM
# Experimental: Cell culture: Human bone marrow derived-mesenchymal stem cells (hBMMSC) were isolated from normal subjects.
# Osteogenesis modulating activity of test compounds with induction media: hBMMSC were culture with culture media containing osteogenic induction cocktails (OIC, 0.1 μM dexamethasone, 50 μM ascorbate-2-phosphate, 10 mM b-glycerophosphate). Four to five days after incubation, Alkaline phosphatase (ALP) activity of cell lysates were measured by colorimetry. For the determination of mineralization within the cells, Von Kossa staining or Alizarin Red S assay was performed 10-14 days after incubation.
# [6] = tested on: hBMMSC; test: Cell proliferation assay (CellTiter 96) in hBMMSC; assay type: cell-based, human; conditions: treated alone; for cell proliferation: 20 μM
# Experimental: Cell proliferation assay: To investigate the cytotoxicity of the test compounds for hBMMSC, hBMMSC were exposed to the test compounds for 6-7 days at the same condition above (method b and c). Cell proliferation was assessed using CellTiter 96 Aqueous One Solution (Promega, #G3581). Absorbance at 490 nm of each well was determined with a microplate reader (Molecular Device) and % growth inhibition was calculated compared with control.
# [7] = tested on: MyoD and Myf5 protein expression in C2C12 cells; test: Expression of MyoD and Myf5 (Western immunoblot) in C2C12 cells; assay type: cell-based, Murine; conditions: for expression of Myf5 compared with DMSO control, dose dependence: 5 and 10 μM; for Myf-5 expression on co-treatment with Wnt1 conditioned medium: co-treated with Wnt1
# Experimental: (§1) a. Cell culture: Murine C2C12 myoblastic cell line (satellite cells from thigh muscle) purchased from American Tissue Type Collection (ATCC) was maintained in exponential phase of growth using 10% FBS/DMEM with Glutamax designed as GM (growth medium) supplied with antibiotic solution (Penicillin and Streptomycin) in a controlled humidified air atmosphere supplied with 5% CO2, at 37° C. in a multiwell or tissue culture Petri dishes (Corning-Costar Inc U.S.A.).
# (§2) b. Induction of differentiation and test compound treatment: Every other day the cells were washed twice with phosphate buffered saline (PBS) and medium was changed until they reached 100% confluence. Confluent cells (myoblasts of the same cell density fully covering surface dish) were then guided to post mitotic status, and differentiation and fusion were initiated by replacing GM with 2% (v/v) horse serum HS/DMEM designed as DM (differentiating medium). In the above mentioned conditions C2C12 myoblasts easily and fully differentiate into myotubes, therefore we could follow up modifications of differentiation process during 5 subsequent days. During the study freshly prepared media without or with the experimental factors were changed every 24 hours. Test compounds were dissolved in DMSO and diluted with culture medium. Test compounds (if not specified, 10 μM was used, final DMSO 0.1% v/v) or DMSO (0.1% v/v) were added to the medium.
# c. Expression of MyoD and Myf5: Cells were lysed and protein expression levels were analyzed by Western-immunoblot analysis, as described in the literature (Verma et al., British J Pharmacol, 2004, 143, 106-13). Equal amount of protein samples were resolved by sodium dodecyl sulphate poly-acrylamide gel electrophoresis (SDS-PAGE) and transferred to nitrocellulose membranes. The membranes were blocked with 5% bovine serum albumin (BSA) and incubated with the indicated primary antibodies for 12˜h: polyclonal C20 antion MyoD (from Santa-Cruz, Biotechnology, Santa Cruz, Calif.) diluted 1/400, polyclonal anti-Myf-5 directed against the COOH-terminal portion of the protein. After several washes in PBS, membranes were incubated with chemiluminescence reagents.
# [8] = tested on: C2C12 myoblasts; test: Myogenesis (myotube formation) in C2C12 myoblast cells; assay type: cell-based, Murine; conditions: C2C12 cells grown in GM
# Experimental: as §1
# as §2, with “Confluent cells (myoblasts of the same cell density fully covering surface dish) were then guided to post mitotic status, and differentiation and fusion were initiated by replacing GM with 2% (v/v) horse serum HS/DMEM designed as DM (differentiating medium).” left out
# [9] = tested on: ALP mRNA in hBMMSC; test: RT-PCR of alkaline phosphatase (ALP) mRNA in hBMMSC; assay type: cell-based, human; conditions: compound treatment for 4 days
# Experimental: RT-PCR. To analyze the mRNA levels for Alkaline phosphatase (ALP), total RNA was isolated using Trizol (Invitrogen-GIBCO-BRL, Baltimore, Md.) from hBMMSC with or without compound treatment for 4 days. 2 μg RNA was reverse transcribed in a total volume of 20 μl with random hexamer (50 ng), and using the Superscript II reverse transcription system (Invitrogen-GIBCO-BRL), according to manufacturer's guidelines. PCR was carried out in a 50 μl volume containing 5 μl cDNA, 100 pmol primers, 100 μM dNTPs, 1×Taq buffer and 1.5 mM MgCl2. Reaction mixtures were heated to 80° C. for 10 min, after which Taq was added. cDNAs were amplified for 25 ([…]) or 15 (GAPDH) cycles. One round of amplification consisted of 1 min at 94° C., 2 min at 60° C., and 2 min at 72° C., with a final extension time of 10 min at 72° C. The PCR products were resolved and visualized by electrophoresis in a 2% gel, stained with ethidium bromide. ALP PCR primers used were, 5′-[…]-3′ and 5′-[…]-3′. Primer pairs for GAPDH were 5′-[…]-3′ and 5′-[…]-3′. A housekeeping gene, GADPH was used as a control.
SMILES,IC50 [1],Cardiomyogenesis: fold change of EGFP expression level compared with DMSO control ([2]; FACS),fold induction at 20 µM ([4]; hBMMSC),"expression of Myf5 compared with DMSO control, dose dependence [7]",Myf-5 expression on co-treatment with Wnt1 conditioned medium [7],"ALP level enhanced ([4]; 20 μM, treated alone to hBMMSC)",mineralization of hBMMSC [5],stimulation of mineralization at various concentrations [5],cell proliferation [6],ALP mRNA expression [9],also measured
CN1CC(=S)N2[C@H](Cc3ccc(O)cc3)C(=O)N(Cc3cccc4ccccc34)C[C@H]2N1C(=O)NCc1ccccc1 [#111],1.46 µM,0.10 fold,,,,,,,,,
O=C1[C@H](Cc2ccc(F)c(F)c2)N2C(=O)CN(Cc3ccc(F)cc3)N(C(=O)NCc3ccccc3)[C@H]2CN1Cc1cccc(C(F)(F)F)c1 [#71],,4.63 fold,,,,,,,,,"expression of fluorescence under the fluorescence microscope compared with DMSO control ([2]; 10 μM, Day 5): significantly enhanced; fold increase of alpha-MHC positive cells compared to DMSO treated EB ([2]; 10 μM, FACS): 4.6 fold; cell population expressing fluorescence (alpha-MHC positive) ([2]; 10 μM, FACS analysis of embryoid bodies): 2.50%; cardiomyogenesis differentiation promoting effect at low concentration ([2]; even at the 0.3 μM): distinctive; cardiomyogenesis differentiation promoting activity (EGFP expression), concentration dependence ([2]; various concentrations): concentration-dependent; expression level of ANP mRNA compared with DMSO control [3]: strongly increased; expression level of Nkx2.5 mRNA compared with DMSO control [3]: strongly increased"
CN(C)c1c(Cl)cccc1CN1C[C@H]2N(C(=O)CN(C)N2C(=O)NCc2ccccc2)[C@@H](Cc2ccc(O)cc2)C1=O [#10],6.98 µM,0.26 fold,0.23,dose-dependently decreased,abolished Myf-5 enhancing activity of Wnt1,,,,,,"cellular alkaline phosphatase activity ([4]; 20 μM, hBMMSC): strongly inhibited; ALP level reduced ([4]; 20 μM, treated alone to hBMMSC): 77%; ALP level reduced compared with vehicle control group ([5]; 20 μM, co-treated with osteogenic induction cocktails): 80%; inhibition at 20 µM ([6]; Homo sapiens, read-out: cell proliferation inhibited): 51%; expression of fluorescence, ratio Compound : DMSO control (control = 1) ([2]; 10 μM for 5 days, mouse embryonic stem cells): 0.26; Myf-5 expression, compound without Wnt1 [7]: reduced; Myf5 expression on co-treatment of CBP ([7]; co-treatment of CBP): not changed; Myf5 expression on co-treatment of p300 ([7]; co-treatment of p300): rescues the decrease of Myf5 expression"
O=C1[C@@H](Cc2ccc(O)cc2)N2C(=S)CCN(C(=O)NCc3ccccc3)[C@@H]2CN1Cc1cccc2ccccc12 [#112],,0.95 fold,,dose-dependently increased,further enhanced,,,,,,myotube formation in growth medium (GM) [8]: extensive myotube formation; Myf5 protein expression level [7]: significantly increased; MyoD protein expression level [7]: significantly increased
O=C1C(Cc2ccc(OCc3ccccc3)cc2)N2C(=O)CN(Cc3ccc(F)cc3)N(C(=O)NCc3ccccc3)C2CN1Cc1cccc(C(F)(F)F)c1 (stereo not shown) [#66],,3.13 fold,2.02,,,202%,strongly induced mineralization,osteogenesis inducing activity,83%,increased,
O=C1[C@H](Cc2ccc(Cl)cc2)N2C(=O)CN(Cc3ccccc3)N(C(=O)NCc3ccccc3)[C@H]2CN1CCc1ccc(Cl)cc1 [#82],,0.97 fold,2,,,200%,strongly induced mineralization,osteogenesis inducing activity,127%,increased,
